In patent publication US12233099B2, “Composition for promoting myogenesis, containing processed ginseng extract” (GREEN CROSS WELLBEING CORPORATION, priority 2018, dated 2025):

Tests used:
Format in all cases: cell-based, mouse
[1] = system: myotubes differentiated from C2C12; test: Myostatin-induced myoatrophy cell model (myotube breadth)
Experimental: After myotubes were differentiated by the same method as in the induction of myotube differentiation of Test Example 1, the cells were added in DMEM not containing FBS, and cultured for 3 hours. After culturing, the cells were treated with the myogenesis inhibitor myostatin (MSTN) at different concentrations for 24 hours, and the change in breadth of myotubes was measured in order to investigate whether myoatrophy was induced. The change in breadth of myotubes was measured by the same method as in Test Example 4, and after the immunofluorescent staining, images of myotubes were observed using the fluorescent substance attached to MHC through a microscope, and the Image J program was used to determine the breadth of myotubes.
To investigate the myoatrophy inhibitory effect of the processed ginseng extracts of the present invention, myoatrophy was induced by the same method as the construction method of myoatrophy animal cell models in Test Example 5-1, and then the change in myotube breadth was observed. The myotubes were treated with 0.4 μg/0 myostatin (MSTN) and 30 μg/0 the processed ginseng extract of Example 2 alone or in combination, and the myotubes not treated with myostatin and the processed ginseng extract of Example 2 were used as a control group.

MyoD = MyoD expression in myostatin-treated myotubes (Western blotting); details: extract 30 μg/ml
Experimental: (§1) The myotubes differentiated by the same method as in Test Example 5-2 were treated with myostatin and the processed ginseng extract of Example 2 to secure cells. The treatment concentrations of the processed ginseng extract of Example 2 was 30 μg/ml. The secured cells were subjected to Western blotting using antibodies corresponding to MyoD and MAFbx by the same method as in Test Example 6-1, and the results are shown in FIG. 8.

[2] = system: phosphorylated Smad2 (pSmad2); test: Smad2 phosphorylation in myostatin-treated myotubes (Western blotting); details: myotubes treated with myostatin; extract 0, 10, 30, and 100 μg/ml
Experimental: The myotubes differentiated by the same method as in Test Example 5-2 were treated with myostatin and the processed ginseng extract of Example 2 to secure cells, and the cells were subjected to Western blotting. The treatment concentrations of the processed ginseng extract of Example 2 was 0, 10, 30, and 100 μg/ml. A lysis buffer was added to the secured cells to lyse cells, and then centrifugation was used to secure proteins of the supernatant. The secured proteins of the supernatant were separated through sodium dodecyl sulfate polyacrylamide gel electrophoresis (SDS-PAGE) and transferred to a polyvinylidene fluoride (PVDF) membrane. The membrane was blocked by a blocking solution, treated with a primary antibody in order to determine the amounts of Smad2 and phosphorylated Smad2 (pSmad2), and then treated with a secondary antibody to the primary antibody. Then, enhanced chemiluminescence (ECL, Amersham) was used to examine protein expression.

MAFbx = MAFbx expression in myostatin-treated myotubes (Western blotting); details: extract 30 μg/ml
Experimental: as §1

myostatin: myogenesis inhibitor protein of the TGF-β group, used to induce myotube atrophy
myotube breadth compared with the control group, treatment alone ([1]; 30 μg/0 Example 2 extract or 0.4 μg/0 myostatin alone): reduced | myostatin concentration giving greatest reduction in breadth of myotubes ([1]; 24 hours): 0.4 μg/0 | breadth of myotubes compared with myotubes not treated with myostatin ([1]; myostatin at different concentrations for 24 hours): reduced in breadth of myotubes with the increase of the treatment concentration | MyoD expression (compared with GAPDH) (MyoD): reduction in MyoD expression | Smad2 phosphorylation (pSmad2) [2]: increased | MAFbx expression (compared with GAPDH) (MAFbx): increase in MAFbx expression
